Results reported in ChEMBL document CHEMBL1127046, “Antitumor agents. 3. Synthesis and biological activity of 4 beta-alkyl derivatives containing hydroxy, amino, and amido groups of 4'-O-demethyl-4-desoxypodophyllotoxin as antitumor agents” (J Med Chem, 1993).

Experiments:
P388 = experiment: Cytotoxicity against P388 leukemia; format: functional, cell-based; settings: Mus musculus
[1] = Inhibition of DNA topoisomerase II from rat liver measured as 50% reduction in the amount of minicircle DNA relative to the control
Tubulin = Tubulin (Bos taurus, UniProt Q6B856+Q862L2+Q862F3); experiment: Drug concentration needed to produce a 50% reduction of bovine brain tubulin polymerization relative to the control
L1210 [2] = experiment: The number of mice survived for 30 days at the dose of 10 (mg/kg/day); format: functional, Mus musculus
L1210 [3] = experiment: Antitumor activity in vivo expressed as the percentage increase in life span at the dose of 10 (mg/kg/day); format: functional, Mus musculus

| Structure (SMILES) | IC50 (P388) | IC50 [1] | IC50 (Tubulin) | Survivors (L1210 [2]) | ILS max (L1210 [3]) |
| --- | --- | --- | --- | --- | --- |
| COc1cc([C@@H]2c3cc4c(cc3[C@@H](CCN(C)C3CCCCC3)C3COC(=O)[C@@H]32)OCO4)cc(OC)c1O.Cl (some centres not stated) | 0.033 µM | 60.9 µM | > 167 µM | – | – |
| COc1cc([C@@H]2c3cc4c(cc3[C@@H](CCN3CCOCC3)C3COC(=O)[C@@H]32)OCO4)cc(OC)c1O.Cl (some centres not stated) | 0.026 µM | 58.3 µM | > 167 µM | 0 | 81% |
| COc1cc([C@@H]2c3cc4c(cc3[C@@H](CC(=O)NCCN3CCOCC3)C3COC(=O)[C@@H]32)OCO4)cc(OC)c1O.Cl (some centres not stated) | 0.22 µM | – | > 100 µM | – | – |
| COc1cc([C@@H]2c3cc4c(cc3[C@@H](CCN3CCC[C@@H]3CO)C3COC(=O)[C@@H]32)OCO4)cc(OC)c1O.Cl (some centres not stated) | 0.063 µM | 112 µM | > 62 µM | – | – |
| COc1cc([C@@H]2c3cc4c(cc3[C@@H](CCN(C)N(C)c3ccccc3)C3COC(=O)[C@@H]32)OCO4)cc(OC)c1O (some centres not stated) | > 1 µM | – | – | – | – |
| COc1cc([C@@H]2c3cc4c(cc3[C@@H](CC(=O)N3CCC(N5CCCCC5)CC3)C3COC(=O)[C@@H]32)OCO4)cc(OC)c1O.Cl (some centres not stated) | 0.0084 µM | 266 µM | > 100 µM | – | – |
| COc1cc([C@@H]2c3cc4c(cc3[C@@H](CCN(C)Cc3ccccc3)C3COC(=O)[C@@H]32)OCO4)cc(OC)c1O.Cl (some centres not stated) | 0.15 µM | 97.3 µM | > 167 µM | 0 | 53% |
| COc1cc([C@@H]2c3cc4c(cc3[C@@H](CC(=O)N(C)CCN(C)C)C3COC(=O)[C@@H]32)OCO4)cc(OC)c1O.Cl (some centres not stated) | 0.032 µM | 252 µM | > 100 µM | – | – |
| COc1cc([C@@H]2c3cc4c(cc3[C@@H](CC(=O)NCCN3CCCCC3)C3COC(=O)[C@@H]32)OCO4)cc(OC)c1O.Cl (some centres not stated) | 3 µM | 60.6 µM | > 100 µM | – | – |
| COc1cc([C@@H]2c3cc4c(cc3[C@@H](CC(=O)NCc3ccncc3)C3COC(=O)[C@@H]32)OCO4)cc(OC)c1O.Cl (some centres not stated) | 2.2 µM | – | > 100 µM | – | – |
| COc1cc([C@@H]2c3cc4c(cc3[C@@H](CCN3CCCCC3)C3COC(=O)[C@@H]32)OCO4)cc(OC)c1O.Cl (some centres not stated) | 0.012 µM | 67.7 µM | > 167 µM | – | – |
| COc1cc([C@@H]2c3cc4c(cc3[C@@H](CCN(C)C(CO)CO)C3COC(=O)[C@@H]32)OCO4)cc(OC)c1O.Cl (some centres not stated) | 0.66 µM | 25.1 µM | > 167 µM | – | – |
| COCCN(C)CC[C@@H]1c2cc3c(cc2[C@@H](c2cc(OC)c(O)c(OC)c2)[C@H]2C(=O)OCC12)OCO3.Cl (some centres not stated) | 0.16 µM | 75.8 µM | > 100 µM | – | – |
| COc1cc([C@@H]2c3cc4c(cc3[C@@H](CCCN(C)C)C3COC(=O)[C@@H]32)OCO4)cc(OC)c1O.Cl (some centres not stated) | 0.012 µM | 73.5 µM | > 167 µM | – | – |
